US20250339531A1, “DUX4 POLYPEPTIDES AND NUCLEIC ACIDS FOR TREATING INFLAMMATORY AND AUTOIMMUNE CONDITIONS” (Fred Hutchinson Cancer Center, priority 2021, published 2025)

Test system: proteins that co-immunoprecipitated with DUX4-CTD constructs expressed in MB135 myoblasts
Assay: LC-MS of proteins co-immunoprecipitated with DUX4-CTD (Table 1) and western validation
Assay type: binding, human
Design: key to 4. mL1dL2 + Dox + IFNG / 4. + IFNG mix / 4. longCTD + Dox + IFNG / 3. + IFNg + Dox longCTD / 3. + Dox longCTD / 3. + IFNG longCTD: peptide-spectrum matches (PSMs) per protein
Conditions: for 4. longCTD + Dox + IFNG: LC-MS counts of the listed protein co-immunoprecipitated with DUX4-CTD bait longCTD; for 3. + Dox longCTD / 3. + IFNg + Dox longCTD / 3. + IFNG longCTD: bait longCTD; for 3. + Dox longCTD: experiment 3, Dox only; for 3. + IFNg + Dox longCTD: experiment 3, IFNg + Dox; for SUM of PSMS: sum over all samples; for 3. + IFNG longCTD: experiment 3, IFNG only, no doxycycline (bait at background level)
Excerpt: As an unbiased method to identify proteins that interact with the C-terminal region of DUX4, liquid chromatography mass spectroscopy (LC-MS) was used to identify proteins that co-immunoprecipitated with DUX4-CTD constructs expressed in MB135 myoblasts. In the first experiment, MB135iDUX4-CTD cells were used, either untreated, treated with doxycycline alone, or with both doxycycline and IFNG. In the second experiment, MB135iDUX4-CTD and MB135iDUX4mL1dL2 cells were used, both treated with doxycycline and IFNG, compared to these two cell lines untreated and combined as a control. Proteins with a minimum of 2 peptide spectrum matches (PSMs) in at least one sample that were identified in both experiments were assigned to one of ten categories (see Methods) to separate candidate interactors from other categories that might be co-purified because of obligate interactions (e.g., proteasome or ribosome) or might be less likely to be physiologically relevant (e.g., cytoskeletal proteins). Candidate interactors were then ranked based on the total PSMs for that protein across all samples.
Centrifugation at 2500 rcf at 4° C. for 5 min pelleted the nuclei, supernatant was discarded, and nuclei resuspended in 1 mL IP buffer pH 7.4 (25 mM Tris-HCl pH 7.5, 175 mM NaCl, 1 mM EDTA, 0.2% NP-40, 5% glycerol) and incubated for 1 hour at 4° C. with rotation then spun at 21000 rcf for 10 minutes at 4° C. to pellet insoluble debris. Protein concentration was determined using the Pierce BCA Protein Assay Kit (ThermoFisher, 23225). An equivalent amount of protein per sample was pre-cleared with Dynabeads Protein G (Invitrogen) bound to mouse IgG (Abcam #131368) for 1 hour at 4° C. with rotation. FLAG-tagged constructs were then immunoprecipitated with Dynabeads Protein G beads coupled to mouse anti-FLAG M2 mAb (Sigma F3165) for 3 hours at 4° C. with rotation. Beads were washed 3× with 1 mL IP buffer and eluted by adding 2× NuPage LDS Sample Buffer (Thermo Fisher, diluted from 4× with PBS) to the beads and heating for 10 minutes at 70° C.
For LC-MS, anti-FLAG immunoprecipitation was performed with beads cross-linked to the anti-FLAG antibody and the proteins competitively eluted with FLAG peptide. Eluted protein samples were electrophoresed into a NuPage 4-12% Bis-Tris gel, excised, and processed by the Fred Hutchinson Cancer Research Center Proteomics Core. Samples were reduced, alkylated, digested with trypsin, desalted, and run on the Orbitrap Eclipse Tribid Mass Spectrometer (Thermo Fisher). Proteomics data were analyzed using Proteome Discoverer 2.4 against a Uniprot human database that included common contaminants using Sequest HT and Percolator for scoring. […] Proteins that were identified in at least one sample from both independent experiments with at least 2 PSMs in one sample were assigned to one of ten categories: 1, candidates; 2, cytoskeletal associated; 3, cytoskeletal; 4, ribosome/translation associated; 5, proteasome associated; 6, membrane or extracellular; ER, golgi, or vesicle associated; 8, lipid metabolism; 9, chaperones; 10, nuclear import or nuclear membrane associated. The proteins in category 1 were further investigated for interactions with DUX4.

[1] = LC-MS value per protein co-immunoprecipitated from MB135 myoblasts, + IFNG mix sample (no Dox), kind of count not given
[2] = LC-MS value per protein co-immunoprecipitated with DUX4-CTD construct mL1dL2 in MB135 myoblasts, + Dox + IFNG, kind of count not given
[3] = LC-MS counts of the listed protein co-immunoprecipitated with DUX4-CTD bait mL1dL2, experiment 4, Dox + IFNG
[4] = LC-MS counts of the listed protein in anti-FLAG co-IP, experiment 4, IFNG, no doxycycline, mix, MB135 myoblasts

| Substance | 4. mL1dL2 + Dox + IFNG [2] | 4. longCTD + Dox + IFNG (experiment 4, Dox + IFNG) | 3. + Dox longCTD | 3. + IFNg + Dox longCTD | SUM of PSMS | further results |
| --- | --- | --- | --- | --- | --- | --- |
| AHNAK |  |  |  |  |  | 4. + IFNG mix [1]: 1 |
| CLTC | 8 |  |  |  |  |  |
| COL1A2 |  |  |  |  |  | 4. + IFNG mix [1]: 2 |
| DES | 10 |  |  |  |  | 4. + IFNG mix [1]: 24 |
| EEF1G | 1 |  |  |  |  |  |
| ENO1 | 3 |  |  |  |  | 4. + IFNG mix [1]: 6 |
| FLNA | 4 |  |  |  |  | 4. + IFNG mix [1]: 3 |
| FLNC | 2 |  |  |  |  | 4. + IFNG mix [1]: 1 |
| FN1 |  |  |  |  |  | 4. + IFNG mix [1]: 3 |
| G3BP1 | 1 |  |  |  |  | 4. + IFNG mix [1]: 1 |
| HNRNPK | 12 |  |  |  |  | 4. + IFNG mix [1]: 3 |
| HNRNPU | 1 |  |  |  |  |  |
| MYH9 | 1 |  |  |  |  | 4. + IFNG mix [1]: 10 |
| NES | 1 |  |  |  |  | 4. + IFNG mix [1]: 6 |
| NPM1 | 4 |  |  |  |  | 4. + IFNG mix [1]: 2 |
| O60684 |  | 1 | 4 | 4 | 15 | 4. mL1dL2 + Dox + IFNG [3]: 6 |
| P4HB | 20 |  |  |  |  | 4. + IFNG mix [1]: 9 |
| P02751 |  |  | 17 | 48 | 68 |  |
| P06748 |  |  | 2 | 8 | 16 |  |
| P07237 |  | 14 | 3 | 5 | 51 |  |
| P07900 |  | 10 |  | 9 | 30 | 4. mL1dL2 + Dox + IFNG [3]: 5; 4. + IFNG mix [4]: 6 |
| P08123 |  |  | 1 |  | 4 | 3. + IFNG longCTD: 1 |
| P08238 |  | 10 | 2 | 14 | 32 | 4. mL1dL2 + Dox + IFNG [3]: 6 |
| P08670 |  | 55 | 42 | 45 | 290 | 3. + IFNG longCTD: 39 |

| Substance | 4. mL1dL2 + Dox + IFNG [2] | 4. longCTD + Dox + IFNG (experiment 4, Dox + IFNG) | 3. + Dox longCTD | 3. + IFNg + Dox longCTD | SUM of PSMS | further results |
| --- | --- | --- | --- | --- | --- | --- |
| P10644 |  | 3 |  | 4 | 11 | 4. mL1dL2 + Dox + IFNG [3]: 4 |
| P11021 |  | 44 | 22 | 62 | 209 | 4. mL1dL2 + Dox + IFNG [3]: 49; 4. + IFNG mix [4]: 31; 3. + IFNG longCTD: 1 |
| P11142 |  | 105 | 27 | 54 | 299 | 4. mL1dL2 + Dox + IFNG [3]: 90; 4. + IFNG mix [4]: 21; 3. + IFNG longCTD: 2 |
| P11940 |  | 3 |  | 13 | 21 |  |
| P16989 |  |  | 1 | 3 | 11 |  |
| P17661 |  | 12 | 9 | 15 | 84 | 3. + IFNG longCTD: 14 |
| P21333 |  | 10 | 1 | 12 | 30 |  |
| P26641 |  | 1 | 3 | 6 | 11 |  |
| P30153 |  | 2 | 5 | 14 | 28 | 3. + IFNG longCTD: 2 |
| P35579 |  | 4 | 122 | 242 | 387 | 3. + IFNG longCTD: 8 |
| P38646 |  | 7 | 1 | 10 | 30 | 4. mL1dL2 + Dox + IFNG [3]: 11; 4. + IFNG mix [4]: 1 |
| P40763 |  |  | 1 | 3 | 5 |  |
| P47929 |  | 6 | 1 | 1 | 8 |  |
| P48681 |  | 2 | 4 | 4 | 18 | 3. + IFNG longCTD: 1 |
| P49368 |  | 2 |  | 1 | 7 | 4. mL1dL2 + Dox + IFNG [3]: 4 |
| P50990 |  | 3 |  | 2 | 6 | 4. mL1dL2 + Dox + IFNG [3]: 1 |
| P50991 |  | 1 |  | 1 | 5 | 4. mL1dL2 + Dox + IFNG [3]: 3 |
| P52294 |  | 2 | 4 | 8 | 15 | 4. mL1dL2 + Dox + IFNG [3]: 1 |
| P61978 |  | 6 | 2 | 8 | 31 |  |
| P63010 |  |  | 8 | 26 | 35 |  |
| P68363 |  |  | 22 |  | 55 |  |
| P68371 |  | 100 | 42 | 70 | 283 | 3. + IFNG longCTD: 11 |
| P78371 |  | 4 |  | 1 | 7 | 4. mL1dL2 + Dox + IFNG [3]: 2 |
| P78527 |  | 2 | 3 | 18 | 39 |  |

| Substance | 4. mL1dL2 + Dox + IFNG [2] | 4. longCTD + Dox + IFNG (experiment 4, Dox + IFNG) | 3. + Dox longCTD | 3. + IFNg + Dox longCTD | SUM of PSMS | further results |
| --- | --- | --- | --- | --- | --- | --- |
| PABPC1 | 5 |  |  |  |  |  |
| PLEC | 16 |  |  |  |  | 4. + IFNG mix [1]: 3 |
| PPP2R1A | 5 |  |  |  |  |  |
| PRKDC | 5 |  |  |  |  | 4. + IFNG mix [1]: 11 |
| PSMA6 | 4 |  |  |  |  |  |
| PSMD2 | 3 |  |  |  |  | 4. + IFNG mix [1]: 1 |
| PSME2 | 4 |  |  |  |  |  |
| PTBP1 | 1 |  |  |  |  |  |
| Q9ULV4 |  | 7 | 4 | 13 | 24 |  |
| Q9Y490 |  | 3 | 1 | 1 | 5 |  |
| Q00839 |  |  | 4 | 9 | 14 |  |
| Q09666 |  | 1 | 8 | 4 | 14 |  |
| Q13200 |  | 4 |  | 3 | 11 |  |
| Q13283 |  | 2 | 1 | 2 | 7 |  |
| Q14315 |  | 12 | 2 | 7 | 24 |  |
| Q15149 |  | 7 | 5 | 21 | 52 |  |
| Q15208 |  | 6 |  |  | 11 | 3. + IFNG longCTD: 1 |
| Q93008 |  | 3 |  | 5 | 15 |  |
| STAT3 | 1 |  |  |  |  |  |
| STK38 |  |  |  |  |  | 4. + IFNG mix [1]: 4 |
| TUBA1B | 24 |  |  |  |  | 4. + IFNG mix [1]: 9 |
| TUBB4B | 47 |  |  |  |  | 4. + IFNG mix [1]: 13 |
